Where a name gives a salt, the structure may show the parent alone. Some results are limits rather than exact numbers.

Results on 2 molecules are retold here after patent publication US8268854B2, “Aza-beta-carbolines and methods of using same” (The UWM Research Foundation, Inc., priority 2008, dated 2012).

Common to all, as to experiment: PDSP primary radioligand binding assay
For one test, the target named is T1, Dopamine D5 (Homo sapiens, UniProt P21918).
T1 construct: expressed in transfected cells
T1 sequence (P21918 whole entry): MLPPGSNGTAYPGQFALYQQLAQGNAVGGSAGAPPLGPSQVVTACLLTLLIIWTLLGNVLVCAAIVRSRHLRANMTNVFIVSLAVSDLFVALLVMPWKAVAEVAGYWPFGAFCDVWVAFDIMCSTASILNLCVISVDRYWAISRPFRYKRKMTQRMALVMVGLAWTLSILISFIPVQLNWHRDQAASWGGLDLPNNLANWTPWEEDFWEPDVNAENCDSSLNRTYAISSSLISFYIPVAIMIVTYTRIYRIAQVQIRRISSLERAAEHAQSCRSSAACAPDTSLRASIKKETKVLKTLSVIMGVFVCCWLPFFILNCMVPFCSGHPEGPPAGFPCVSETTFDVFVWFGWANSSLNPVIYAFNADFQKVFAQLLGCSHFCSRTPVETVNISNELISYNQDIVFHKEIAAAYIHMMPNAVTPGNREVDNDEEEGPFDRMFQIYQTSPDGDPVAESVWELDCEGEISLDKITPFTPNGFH
Particulars: compound 10 μM. Here is the method:
(§1) Primary and secondary radioligand binding assays are performed. In general, the primary assay is run at very high ligand (compound) concentration as a broad screen to determine whether a compound binds to a particular receptor. If greater than 50% inhibition at 10 μM (high concentration of compound) at a particular receptor is determined, a secondary assay is performed on that receptor. Data from the secondary assay is the binding affinity (Ki value).
(§2) A solution of the compound to be tested is prepared as a 1 mg/ml stock in Standard Binding Buffer or dimethyl sulfoxide (DMSO) according to its solubility. A similar stock of a reference compound (positive control) is also prepared.
(§3) Radioligand (radioligands are presented in Table 39) is diluted to five times the assay concentration (assay concentrations are presented in Table 39) in Standard Binding Buffer. Typically, the assay concentration of radioligand is a value between one half the KD and the KD of a particular radioligand at its target. Aliquots (50 μL) of radioligand are dispensed into the wells of a 96-well plate (see FIG. 11) containing 100 μL of Standard Binding Buffer (Table 40). Then, duplicate 50 μL aliquots of the test and reference compound dilutions are added (see FIG. 11). According to FIG. 11, increasing concentrations (from left to right) of reference or test compound (diluted in buffer) are added (50 μL aliquots, in duplicate) from 5× stock solutions to wells containing 50 μL of 5× radioligand (fixed concentration, prepared in buffer) and 100 μL of buffer. Finally, 50 μL of receptor-containing membrane homogenate (5× suspension in buffer) are added to achieve a final assay volume of 250 μL. Final concentrations of reference or test compound are listed above the columns in FIG. 11.
(§4) Finally, crude membrane fractions of cells expressing recombinant target (prepared from 10 cm plates by harvesting phosphate buffered saline (PBS)-rinsed monolayers, resuspending and lysing in chilled, hypotonic 50 mM Tris-HCl, pH 7.4, centrifuging at 20,000×g, decanting the supernatant and storing at −80° C.; typically, one 10 cm plate provides sufficient material for 24 wells) are resuspended in 3 mL of chilled Standard Binding Buffer and homogenized by several passages through a 26 gauge needle, and then 50 μL are dispensed into each well.
(§5) The 250 μL reactions are incubated at room temperature and shielded from light (to prevent photolysis of light-sensitive ligands) for 1.5 hours, then harvested by rapid filtration onto Whatman GF/B glass fiber filters pre-soaked with 0.3% polyethyleneimine using a 96-well Brandel harvester. Four rapid 500 μL washes are performed with chilled Standard Binding Buffer to reduce non-specific binding. Filters are placed in 6 mL scintillation tubes and allowed to dry overnight. The next day, 4 mL of EcoScint scintillation cocktail (National Diagnostics) are added to each tube. The tubes are capped, labeled, and counted by liquid scintillation counting. For higher throughput assays, bound radioactivity is harvested onto 0.3% polyethyleneimine-treated, 96-well filter mats using a 96-well Filtermate harvester. The filter mats are dried, then scintillant is melted onto the filters, and the radioactivity retained on the filters is counted in a Microbeta scintillation counter.
(§6) Raw data (dpm) representing total radioligand binding (i.e., specific+non-specific binding) are plotted as a function of the logarithm of the molar concentration of the competitor (i.e., test or reference compound). […]

The target in a further test is T2, Dopamine receptor D2 (Homo sapiens, UniProt P14416).
T2 construct: expressed in transfected cells
T2 sequence (P14416 whole entry): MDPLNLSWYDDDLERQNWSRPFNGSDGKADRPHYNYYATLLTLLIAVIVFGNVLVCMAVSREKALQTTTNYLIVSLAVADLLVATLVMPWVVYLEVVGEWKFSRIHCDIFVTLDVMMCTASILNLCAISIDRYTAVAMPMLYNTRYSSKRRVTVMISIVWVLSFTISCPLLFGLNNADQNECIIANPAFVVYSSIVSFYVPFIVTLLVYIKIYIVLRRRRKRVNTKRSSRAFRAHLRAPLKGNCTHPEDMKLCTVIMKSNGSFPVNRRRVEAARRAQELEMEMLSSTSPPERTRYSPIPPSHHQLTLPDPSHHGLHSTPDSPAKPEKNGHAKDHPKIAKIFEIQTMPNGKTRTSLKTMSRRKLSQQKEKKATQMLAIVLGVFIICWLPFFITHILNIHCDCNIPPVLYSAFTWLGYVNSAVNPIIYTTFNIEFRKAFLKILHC
The note with it: compound 10 μM; for inhibition at 10 µM: n=4, read-out: mean percentage inhibition, Dopamine receptor D2. The method, then:
as §1, §2, §3, §4, §5, §6

For a further test, the target named is T3, Dopamine receptor D3 (Rattus norvegicus, UniProt P19020).
T3 construct: expressed in transfected cells
T3 sequence (P19020 whole entry): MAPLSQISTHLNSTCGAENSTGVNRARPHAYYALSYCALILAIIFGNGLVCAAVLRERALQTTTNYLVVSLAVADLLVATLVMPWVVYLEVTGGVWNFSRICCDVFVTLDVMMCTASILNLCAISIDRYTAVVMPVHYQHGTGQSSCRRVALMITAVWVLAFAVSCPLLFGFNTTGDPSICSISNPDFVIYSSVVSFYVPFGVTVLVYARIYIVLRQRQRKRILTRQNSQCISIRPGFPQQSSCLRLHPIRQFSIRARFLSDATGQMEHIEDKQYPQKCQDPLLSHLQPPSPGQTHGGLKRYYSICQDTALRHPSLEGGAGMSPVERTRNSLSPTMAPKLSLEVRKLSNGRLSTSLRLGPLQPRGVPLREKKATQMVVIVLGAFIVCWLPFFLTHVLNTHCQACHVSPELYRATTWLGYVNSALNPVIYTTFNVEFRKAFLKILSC
The note with it: compound 10 μM; for inhibition at 10 µM: n=4, read-out: mean percentage inhibition, Dopamine receptor D3. The method, then: as §1, §2, §3, §4, §5, §6

A further test deals with T4, Dopamine receptor D4 (Homo sapiens, UniProt P21917).
T4 construct: expressed in transfected cells
T4 sequence (P21917 1-419): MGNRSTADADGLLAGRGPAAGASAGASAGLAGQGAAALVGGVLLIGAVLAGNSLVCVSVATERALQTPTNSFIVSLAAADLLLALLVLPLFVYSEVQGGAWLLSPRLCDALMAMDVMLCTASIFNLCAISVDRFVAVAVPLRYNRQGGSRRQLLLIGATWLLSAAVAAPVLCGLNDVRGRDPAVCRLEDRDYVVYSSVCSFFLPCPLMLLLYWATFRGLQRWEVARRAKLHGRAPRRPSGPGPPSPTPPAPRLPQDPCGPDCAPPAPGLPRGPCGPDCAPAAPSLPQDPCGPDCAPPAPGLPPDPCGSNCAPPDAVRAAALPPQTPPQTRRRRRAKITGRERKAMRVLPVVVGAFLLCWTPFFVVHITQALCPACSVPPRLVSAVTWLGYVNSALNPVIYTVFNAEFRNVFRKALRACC
The note with it: compound 10 μM, n=4, read-out: mean percentage inhibition, Dopamine receptor D4. The method, then: as §1, §2, §3, §4, §5, §6

The next test concerns the target T5, Histamine receptor H2 (Homo sapiens, UniProt P25021).
T5 construct: expressed in transfected cells
The note with it: compound 10 μM; for mean percentage inhibition, Histamine receptor H2: n=4, hydrochloride, 10 µM. Here is the method:
as §1, §2, §3, §4, §5, §6

T5 sequence (P25021 whole entry): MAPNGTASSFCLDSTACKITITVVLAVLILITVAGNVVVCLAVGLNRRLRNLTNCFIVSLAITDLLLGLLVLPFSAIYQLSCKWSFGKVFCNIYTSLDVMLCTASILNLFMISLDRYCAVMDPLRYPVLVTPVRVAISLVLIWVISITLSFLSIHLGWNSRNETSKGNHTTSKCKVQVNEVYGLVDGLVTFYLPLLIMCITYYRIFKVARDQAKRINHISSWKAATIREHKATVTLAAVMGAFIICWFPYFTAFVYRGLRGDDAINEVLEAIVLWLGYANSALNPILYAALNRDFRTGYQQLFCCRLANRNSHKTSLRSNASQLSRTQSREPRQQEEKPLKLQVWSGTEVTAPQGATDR

As to `CCCOc1cc2c(cn1)[nH]c1ccncc12` [Compound 2, 8-Propoxypyridino[4′,3′-5,4]pyrrolo[3,2-c]pyridine hydrochloride], the “binding at 10 μM, Dopamine D5” value at Dopamine D5 is below 50%. The inhibition (commonly the change of the read-out against control, counted positive when it falls) at 10 µM is above 50% on Dopamine receptor D2; below 50% on Dopamine receptor D3; above 50% at Dopamine receptor D4; below 50% at Histamine receptor H2 (n=4, read-out: mean percentage inhibition, Histamine receptor H2). Also, the “mean percentage inhibition, Dopamine receptor D3” value at Dopamine receptor D3 (n=4, hydrochloride, 10 µM) came to 31.8%. Moreover, at Histamine receptor H2, the “mean percentage inhibition, Histamine receptor H2” value amounted to 31.4%.
As to `CCCOc1cc2c(cn1)[nH]c1cnccc12` [Compound 4, 3-Propoxy pyridino[4′,3′-4,5]pyrrolo[2,3-c]pyridine hydrochloride], the “binding at 10 μM, Dopamine D5” value at Dopamine D5 is given as below 50%. At Dopamine receptor D2 (n=4, hydrochloride, 10 µM), the “mean percentage inhibition, Dopamine receptor D2” value was determined as 50%. In addition, the inhibition at 10 µM at Dopamine receptor D2 was above 50%; on Dopamine receptor D3, 24.1%; on Dopamine receptor D4, -18.1%. Besides, the “mean percentage inhibition, Histamine receptor H2” value at Histamine receptor H2 came out at 26.8%.
